Measurements as given in patent publication US6750348B1, “Chemokine receptor binding heterocyclic compounds” (AnorMED, Inc., priority 1999, dated 2004).

Legend:
Format in all cases: cell-based
[1] = system: RANTES induced Ca flux in U87.CCR5 cells; assay: Inhibition of RANTES induced Ca flux in U87.CCR5 cells (FLIPR); conditions: U-87-CCR5, at 20 μg/mL, read-out: inhibited RANTES induced Ca flux
Description: Loading dye: Fluo-3, AM (Molecular Probes F-1241) is dissolved in anhydrous DMSO and stored frozen in aliquots. To increase the solubility of the dye in the loading medium, 10% (w/v) pluronic acid (Molecular Probes F-127) is added to the Fluo-3 stock solution immediately before use.
HBSS+20 mM Hepes buffer+0.2% BSA, pH 7.4. HBSS 10× [(w/o phenol red and sodium bicarbonate (Gibco 14 065-049)]; Hepes buffer 1M (Gibco 15 630-056), BSA (Sigma A3675). The flux buffer is vacuum-filtered and stored refrigerated for a maximum of 5 days. Before use in the experiment, the buffer is warmed at 37° C. in a waterbath.
The test compounds were diluted in flux buffer and added to 4 wells of a black microplate (4 parallel measurements per compound).
The chemokines are diluted in flux buffer to concentrations that are 4-fold higher than the desired concentrations required for stimulation of the cells (i.e. 2.5 nM for SDF-1α and 0.6 nM for RANTES). The chemokines were added to untreated 96-well Sero well compound plates (International Medical, Sterilin code 611F96). In the negative control well's (baseline monitoring), flux buffer is added instead of chemokine. As a positive control to check for dye loading efficiency, 20 μM digitonin (final concentration) was also included. The agonist plate was incubated in the FLIPR (37° C.) for 15-30 min.
The FLIPR settings (camera exposure time and laser power) are adjusted to obtain initial fluorescence values between 8,000 and 10,000 units. After monitoring a 20 second-baseline, the agonist (chemokine) (50 μL) is added by automatic pipettor with black pipette tips. Fluorescence is measured simultaneously in all wells of the microplate every 2 seconds (first 2 min) and thereafter every 6 seconds (additional 2 min). The average ca-flux measured in each set of 4 identical wells (one test compound) was calculated by the FLIPR software.
U87.CCR5 cells were seeded into the black microplates (Costar 3603) on the day before the experiment. The culture medium was removed from the cells and 100 μL of loading medium (DMEM+10% FBS+4 μM Fluo-3, AM) was added to each well and the plate was incubate at 37° C. for 45 min. The loading medium was then removed an the cells were washed twice with flux buffer using the CELL WASH microplate washer (Labsystems) followed by incubation in flux buffer for 10 min. at room temperature (the washing procedure was repeated twice). Finally, the wash buffer was removed from the microplate wells and 150 μL of the test compound, diluted in flux buffer to the desired concentration. The microplate was then incubated in the FLIPR drawer for 10 min. prior to testing. Measurements were performed as described above.
The compounds of the current invention were tested for inhibition of RANTES induced Ca flux in U87.CCR5 cells.

[2] = system: HIV-1 NL4.3 or IIIB; assay: Inhibition of HIV-1 (NL4.3 or IIIB) replication in MT-4 cells (MTT); conditions: Human immunodeficiency virus 1, IIIB, MT4, read-out: EC50, inhibition of HIV-1 NL4.3 or IIIB replication
Method in brief: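 CXCR4-tropic virus infected MT-4 cells at MOI 0.01 (100× CCID50) across a range of compound concentrations, with cytotoxicity run in parallel. Viable cells counted by MTT after 5 days. EC50 is the concentration protecting 50% of infected cells from viral cytopathicity.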

[3] = system: HIV-1 BaL (CCR5 using); assay: Inhibition of HIV-1 (BaL) replication in PHA-stimulated PBMC's (MTT); conditions: Human immunodeficiency virus 1, BAL, MTT assay
Description: Compounds were tested for their ability to inhibit HIV-1 replication in MT-4 cells or PBMC's (peripheral blood mononucleocytes) using published procedures (for example, see: Labrosse et al. J. Virol. 1998, 6381-6388; Simmons et al. J. Virol. 1998, 8453-8457; Donzella et al. Nature Medicine 1998, 72-77; Schols et al. J. Exp. Med. 1997, 1383-1388; De Clercq et al. Antiviral Res. 1997, 147-156; and Bridger et al. U.S. patent application Ser. No. 09/111,895). In addition to the above references, experimental methods for performing anti-viral assays can also be found in: Bridger et al. J. Med. Chem. 1995, 38, 366-378; Bridger et al. J. Med. Chem. 1996, 39, 109-119; Bridger et al. U.S. Pat. No. 5,698,546; Bridger et al. U.S. Pat. No. 5,583,131; Bridger et al. U.S. Pat. No. 5,817,807; De Clercq et al. Antimicrob. Agents and Chemother. 1994, 38, 668-674.
The HIV-1 strain BaL is M-tropic (macrophage tropic) strain that exclusively uses CCR5 as a co-receptor for entry into cells. PBMC's (from healthy donors) express all chemokine receptors including CXCR4 and CCR5.

[4] = system: SDF-1α induced Ca flux in SUP-T1 cells; assay: Inhibition of SDF-1α induced Ca flux in SUP-T1 cells (FLIPR); conditions: Homo sapiens, at 20 μg/mL, read-out: inhibited SDF-1α induced Ca flux

| SMILES | EC50 [2] [µg/mL] | EC50 [3] [µg/mL] | inhibition at 20 µg/mL [1] [%] | inhibition at 20 µg/mL [4] [%] |
| --- | --- | --- | --- | --- |
| c1ccc(CNCc2ccc(CNc3cccc4ccccc34)cc2)nc1 [Example 5, N-(2-pyridinylmethyl)-N′-(1-naphthalenyl)-1,4-benzenedimethanamine] | – | < 20 | > 20 | – |
| c1ccc(-c2ccc3c(n2)C(NCc2ccc(CNCc4ccccn4)cc2)CCC3)cc1 (stereo not drawn) [Example 11, N-(2-pyridinylmethyl)-N′-(2-phenyl-5,6,7,8-tetrahydro-8-quinolinyl)-1,4-benzenedimethanamine] | < 20 | < 20 | > 20 | – |
| c1ccc(CNCc2ccc(CN(Cc3ccco3)C3CCCc4cccnc43)cc2)nc1 (stereo not drawn) [Example 29, N-(2-pyridinylmethyl)-N′-[2-furanylmethyl]-N′-(5,6,7,8-tetrahydro-8-quinolinyl)-1,4-benzenedimethanamine] | < 20 | < 20 | – | > 20 |
| c1ccc(CNCCN(Cc2ccc(CNCc3ccccn3)cc2)C2CCCc3cccnc32)cc1 (stereo not drawn) [Example 30, N-(2-pyridinylmethyl)-N′-[2-[(phenylmethyl)amino]ethyl]-N′-(5,6,7,8-tetrahydro-8-quinolinyl)-1,4-benzenedimethanamine] | < 20 | < 20 | > 20 | > 20 |

Further lines, with some results ahead:

| EC50 [2] [µg/mL] | EC50 [3] [µg/mL] | SMILES | inhibition at 20 µg/mL [1] [%] | inhibition at 20 µg/mL [4] [%] |
| --- | --- | --- | --- | --- |
| < 20 | < 20 | N[C@@H]1CCC[C@H]1N(Cc1ccc(CNCc2ccccn2)cc1)C1CCCc2cccnc21 (relative stereo) [Example 71, N-(2-pyridinylmethyl)-N′-(trans-2-aminocyclopentyl)-N′-(5,6,7,8-tetrahydro-8-quinolinyl)-1,4-benzenedimethanamine] | > 20 | – |
| < 20 | < 20 | CC1c2ccccc2CCC1NCc1ccc(CNCc2ccccn2)cc1 (stereo not drawn) [Example 37, N-(2-pyridinylmethyl)-N′-(1-methyl-1,2,3,4-tetrahydro-2-naphthalenyl)-1,4-benzenedimethanamine] | – | > 20 |
| < 20 | < 20 | Fc1cccc2c1CC(NCc1ccc(CNCc3ccccn3)cc1)CC2 (stereo not drawn) [Example 43, N-(2-pyridinylmethyl)-N′-(8-Fluoro-1,2,3,4-tetrahydro2-naphthalenyl)-1,4-benzenedimethanamine] | – | > 20 |
| < 20 | < 20 | c1ccc(CCN(Cc2ccc(CNCc3ccccn3)cc2)C2CCCc3cccnc32)nc1 (stereo not drawn) [Example 66, N-(2-pyridinylmethyl)-N′-[2-(2-pyridinyl)ethyl]-N′-(5,6,7,8-tetrahydro-8-quinolinyl)-1,4-benzenedimethanamine] | – | > 20 |
| < 20 | < 20 | c1ccc(CNCc2ccc(CN(Cc3ccccn3)CC3CCCc4cccnc43)cc2)nc1 (stereo not drawn) [Example 88, N,N′-bis(2-pyridinylmethyl)-N′-[(5,6,7,8-tetrahydro-8-quinolinyl)methyl]-1,4-benzenedimethanamine] | – | > 20 |
